Results taken from patent US9363996B2, “Compositions and method for blocking ethylene response in field crops using 3-(cy-clopropyl-l-enyl)-propanoic salt” (Yissum Research Development Company of the Hebrew …, priority 2009, dated 2016).

Key:
[1] = system: excised cotton leaves at different developmental stages; experiment: Ethylene-induced chlorophyll degradation in leaves of mature cotton plants; format: in vivo, cotton (Gossyium hirsutum barbadense L.)
Experimental: (§1) (1) Abscission—This is a very sensitive model system for studying the effects of plant hormones. Ethylene induces the process of abscission, while auxin delays it. In the laboratory the experimental system is based on plant organ explants, which include the abscission zone. Abscission is induced by exposure to ethylene and at the termination of the experiment the number of abscised organs, usually either leaf blades or petioles are counted and the fraction of abscission is calculated. In the case of fruit, the decrease in fruit retention force is analyzed. In cotton, when WS-CPD (the ethylene-action antagonist herein disclosed) is tested, the whole plants or explants are pretreated by spraying with the antagonist, dissolved in a phosphate buffer solution (10-20 mM, pH 7.0) including 0.1% commercially available Kinetic™ as surfactant, and left to incubate for a predetermined time, usually between 6 and 24 h. The plants or explants are then further exposed for 24 h to ethylene gas (5 to 20 μL L^−1). The plants or explants are then ventilated and incubated for the required time under controlled conditions. At the end of the experiment the percentage of abscission is determined. (2) Chlorophyll degradation—This is a standard model for studying senescence. Plant material (whole plants, excised leaves or leaf discs) are pretreated. In cotton, tobacco and wheat, when WS-CPD is tested, the whole plants or explants are pretreated by spraying with the antagonist, dissolved in phosphate buffer solution (10-20 mM, pH 7.0) including 0.1% commercially available Kinetic™ surfactant, and left to incubate for a predetermined time, usually between 6 and 241. The plants or explants are then further exposed for 24 h to ethylene gas (1 to 100 μL L^−1), or sprayed with Ethephon™ (wheat; 250 to 750 μL L^−1). The plants or explants are then ventilated and incubated for the required time under controlled conditions. At the end of the experiment a dimethylsulfoxide (DMSO) extract of the plant tissue is prepared, and the chlorophyll content of the extract is determined by spectrophotometric analysis. The chlorophyll content is reported either on a fresh, dry weight basis, or on a surface area basis. (3) Epinasty—This is also one of the classical methods for studying ethylene effects in plants. The extent of ethylene-induced epinasty of leaves is determined by measuring the change of the angle between the petiole and the stem shoot or blade. After exposure of the intact plant to ethylene, the upright grown leaves bend downward. The increase in the angle values (degrees) between petiole and the stem is used as a measure of the effect of the ethylene. […]

[2] = system: mature cotton leaf explants; experiment: Ethylene-induced petiole abscission of mature cotton leaf explants; format: in vivo, cotton (Gossyium hirsutum barbadense L.); conditions: for abscission: day 5
Experimental: as §1

With `O=C([O-])CCC1=CC1.[Na+]` [WS-CPD, 3-cyclopropyl-1-enyl-propanoic sodium salt] the ethylene-induced chlorophyll degradation ([1]; mature leaves, WS-CPD 480 μg L^−1 (so in the source)) was “less effective”, the “inhibition of ethylene-induced chlorophyll degradation” value ([1]; mature leaves, WS-CPD 90 and 240 μg mL^−1) was 95% and the ethylene-induced chlorophyll degradation ([1]; young leaves, WS-CPD 10 μg mL^−1, ethylene 10 μL L^−1) was “completely antagonized”. For the same molecule, the ethylene-induced chlorophyll degradation ([1]; young leaves, WS-CPD 270 μg mL^−1) was “less effective”, the abscission percentage ([2]; WS-CPD 90 μg mL^−1) was “slightly lower than that of the untreated air control” and the abscission ([2]; WS-CPD 10, 30 and 90 μg mL^−1) was 100%. It also gave a decrease of abscission ([2]; WS-CPD 10 and 30 μg mL^−1, after 3 days of incubation, ethylene 10 μL L^−1) of 20% and an abscission ([2]; WS-CPD 240-480 μg mL^−1) of 50%.
